Reference: patent EP4722207A1, “OXOISOINDOLINYL-SUBSTITUTED TETRAHYDROPYRIMIDINEDIONE DERIVATIVE AND USE THEREOF” (Gluetacs Therapeutics (Shanghai) Co., Ltd., priority 2023, dated 2024)

What was measured:
Type in all cases: cell-based
[1] = target: T1, IKZF1 (Homo sapiens, UniProt Q13422+Q96SW2); test: Western-blot assay, substrate protein degradation in hPBMCs: IKZF1; conditions: for IKZF1 substrate protein remaining %: compounds at 50 nM and 500 nM, 24 hours; for substrate protein remaining % IKZF1: 24 hours of compound treatment, 50 nM and 500 nM
T1 construct: effects of the compounds of the present disclosure on the expression of target proteins in cells; endogenous in cells; host or cells: human PBMCs (hPBMCs)
T1 sequence (Q13422 whole entry): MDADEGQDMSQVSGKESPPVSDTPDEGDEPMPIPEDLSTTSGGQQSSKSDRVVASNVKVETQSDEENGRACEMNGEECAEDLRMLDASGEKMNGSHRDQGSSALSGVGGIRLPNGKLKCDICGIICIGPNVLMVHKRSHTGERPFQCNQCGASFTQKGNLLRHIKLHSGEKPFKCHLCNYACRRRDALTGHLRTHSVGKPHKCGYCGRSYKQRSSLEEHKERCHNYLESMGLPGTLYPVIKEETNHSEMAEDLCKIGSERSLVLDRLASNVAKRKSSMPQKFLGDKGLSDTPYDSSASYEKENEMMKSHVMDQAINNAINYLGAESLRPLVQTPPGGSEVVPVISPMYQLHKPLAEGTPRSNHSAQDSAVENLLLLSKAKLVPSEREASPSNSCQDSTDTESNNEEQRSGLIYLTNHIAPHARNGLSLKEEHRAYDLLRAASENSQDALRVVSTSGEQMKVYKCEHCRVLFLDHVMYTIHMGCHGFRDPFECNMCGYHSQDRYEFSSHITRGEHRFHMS
T1 sequence (Q96SW2 whole entry): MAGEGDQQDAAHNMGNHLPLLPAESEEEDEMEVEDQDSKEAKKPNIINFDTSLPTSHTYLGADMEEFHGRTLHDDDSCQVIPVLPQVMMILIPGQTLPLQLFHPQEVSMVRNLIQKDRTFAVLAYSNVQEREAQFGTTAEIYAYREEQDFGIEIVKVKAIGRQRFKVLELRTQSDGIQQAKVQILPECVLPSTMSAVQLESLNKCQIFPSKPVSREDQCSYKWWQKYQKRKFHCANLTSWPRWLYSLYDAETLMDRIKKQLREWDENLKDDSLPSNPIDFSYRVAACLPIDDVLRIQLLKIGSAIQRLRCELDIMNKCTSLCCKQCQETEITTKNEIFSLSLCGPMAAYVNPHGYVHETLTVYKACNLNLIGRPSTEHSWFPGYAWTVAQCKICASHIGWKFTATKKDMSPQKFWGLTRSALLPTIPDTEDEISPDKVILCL
T1 sequence (Q16531 whole entry partner): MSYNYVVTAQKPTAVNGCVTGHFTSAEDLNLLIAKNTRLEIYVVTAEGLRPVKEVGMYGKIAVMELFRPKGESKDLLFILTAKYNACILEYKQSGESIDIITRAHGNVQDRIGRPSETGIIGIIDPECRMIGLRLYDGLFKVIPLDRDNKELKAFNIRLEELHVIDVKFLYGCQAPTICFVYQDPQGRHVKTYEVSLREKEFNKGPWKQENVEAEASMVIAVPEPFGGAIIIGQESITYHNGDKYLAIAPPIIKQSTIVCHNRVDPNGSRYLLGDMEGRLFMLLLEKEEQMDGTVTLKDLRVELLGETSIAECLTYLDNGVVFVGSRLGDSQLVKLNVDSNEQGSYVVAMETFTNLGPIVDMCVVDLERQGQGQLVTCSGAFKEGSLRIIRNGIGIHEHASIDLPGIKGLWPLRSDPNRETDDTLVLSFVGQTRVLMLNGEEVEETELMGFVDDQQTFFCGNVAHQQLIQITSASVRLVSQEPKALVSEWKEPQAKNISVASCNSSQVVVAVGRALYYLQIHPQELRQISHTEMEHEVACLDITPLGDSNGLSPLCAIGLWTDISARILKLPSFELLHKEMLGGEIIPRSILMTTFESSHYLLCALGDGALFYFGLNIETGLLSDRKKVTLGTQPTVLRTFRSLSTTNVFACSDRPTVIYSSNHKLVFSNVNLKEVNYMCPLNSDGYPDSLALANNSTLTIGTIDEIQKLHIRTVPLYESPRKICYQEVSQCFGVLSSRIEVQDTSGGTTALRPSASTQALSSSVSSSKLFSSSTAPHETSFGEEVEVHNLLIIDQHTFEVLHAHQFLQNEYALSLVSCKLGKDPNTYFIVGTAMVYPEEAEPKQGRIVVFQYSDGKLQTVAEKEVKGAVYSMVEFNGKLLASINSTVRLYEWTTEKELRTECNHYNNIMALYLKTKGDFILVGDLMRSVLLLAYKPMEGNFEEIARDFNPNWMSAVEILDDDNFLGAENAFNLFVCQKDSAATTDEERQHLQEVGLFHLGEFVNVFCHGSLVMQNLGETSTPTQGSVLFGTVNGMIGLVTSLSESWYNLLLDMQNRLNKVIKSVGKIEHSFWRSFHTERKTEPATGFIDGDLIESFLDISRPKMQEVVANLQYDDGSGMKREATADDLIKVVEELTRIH

[2] = target: T2, IKZF3 (Homo sapiens, UniProt Q96SW2+Q9UKT9); test: Western-blot assay, substrate protein degradation in hPBMCs: IKZF3; conditions: for IKZF3 substrate protein remaining %: compounds at 50 nM and 500 nM, 24 hours; for substrate protein remaining % IKZF3: 24 hours of compound treatment, 50 nM and 500 nM
T2 construct: effects of the compounds of the present disclosure on the expression of target proteins in cells; endogenous in cells; host or cells: human PBMCs (hPBMCs)
T2 sequence (Q9UKT9 whole entry): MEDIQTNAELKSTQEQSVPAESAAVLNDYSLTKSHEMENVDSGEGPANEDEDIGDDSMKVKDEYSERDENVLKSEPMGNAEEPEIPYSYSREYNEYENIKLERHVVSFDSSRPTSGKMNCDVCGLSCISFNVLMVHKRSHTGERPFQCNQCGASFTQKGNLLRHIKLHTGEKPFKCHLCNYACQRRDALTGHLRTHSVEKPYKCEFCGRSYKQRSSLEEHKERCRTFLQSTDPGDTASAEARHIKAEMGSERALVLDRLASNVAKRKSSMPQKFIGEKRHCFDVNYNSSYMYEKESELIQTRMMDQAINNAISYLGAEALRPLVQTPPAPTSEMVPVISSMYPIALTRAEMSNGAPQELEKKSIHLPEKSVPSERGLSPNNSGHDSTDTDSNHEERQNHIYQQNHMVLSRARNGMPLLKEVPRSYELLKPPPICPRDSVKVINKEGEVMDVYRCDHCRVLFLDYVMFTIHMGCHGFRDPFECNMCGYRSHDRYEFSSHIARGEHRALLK
T2 sequence (Q96SW2 whole entry): as the sequence (Q96SW2 whole entry) above
T2 sequence (Q16531 whole entry partner): as the sequence (Q16531 whole entry partner) above

[3] = target: T3, CK1α (Homo sapiens, UniProt P48729+Q96SW2); test: Western-blot assay, substrate protein degradation in hPBMCs: CK1α; conditions: for CK1α substrate protein remaining %: compounds at 50 nM and 500 nM, 24 hours; for substrate protein remaining % CK1α: 24 hours of compound treatment, 50 nM and 500 nM
T3 construct: effects of the compounds of the present disclosure on the expression of target proteins in cells; endogenous in cells; host or cells: human PBMCs (hPBMCs)
T3 sequence (P48729 whole entry): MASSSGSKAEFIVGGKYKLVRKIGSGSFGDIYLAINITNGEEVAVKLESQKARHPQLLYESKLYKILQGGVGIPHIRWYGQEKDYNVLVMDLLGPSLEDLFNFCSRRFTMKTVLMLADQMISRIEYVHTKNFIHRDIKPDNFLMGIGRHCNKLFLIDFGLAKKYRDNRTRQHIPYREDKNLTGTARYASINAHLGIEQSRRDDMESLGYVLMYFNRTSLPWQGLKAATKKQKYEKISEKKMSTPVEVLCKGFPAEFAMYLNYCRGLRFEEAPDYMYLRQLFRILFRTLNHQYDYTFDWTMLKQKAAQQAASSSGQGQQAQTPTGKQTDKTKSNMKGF
T3 sequence (Q96SW2 whole entry): as the sequence (Q96SW2 whole entry) above
T3 sequence (Q16531 whole entry partner): as the sequence (Q16531 whole entry partner) above

[4] = target: T4, WEE1 (Homo sapiens, UniProt P30291+Q96SW2); test: Western-blot assay, substrate protein degradation in hPBMCs: WEE1; conditions: for WEE1 substrate protein remaining %: compounds at 50 nM and 500 nM, 24 hours; for substrate protein remaining % WEE1: 24 hours of compound treatment, 50 nM and 500 nM
T4 construct: effects of the compounds of the present disclosure on the expression of target proteins in cells; endogenous in cells; host or cells: human PBMCs (hPBMCs)
T4 sequence (P30291 whole entry): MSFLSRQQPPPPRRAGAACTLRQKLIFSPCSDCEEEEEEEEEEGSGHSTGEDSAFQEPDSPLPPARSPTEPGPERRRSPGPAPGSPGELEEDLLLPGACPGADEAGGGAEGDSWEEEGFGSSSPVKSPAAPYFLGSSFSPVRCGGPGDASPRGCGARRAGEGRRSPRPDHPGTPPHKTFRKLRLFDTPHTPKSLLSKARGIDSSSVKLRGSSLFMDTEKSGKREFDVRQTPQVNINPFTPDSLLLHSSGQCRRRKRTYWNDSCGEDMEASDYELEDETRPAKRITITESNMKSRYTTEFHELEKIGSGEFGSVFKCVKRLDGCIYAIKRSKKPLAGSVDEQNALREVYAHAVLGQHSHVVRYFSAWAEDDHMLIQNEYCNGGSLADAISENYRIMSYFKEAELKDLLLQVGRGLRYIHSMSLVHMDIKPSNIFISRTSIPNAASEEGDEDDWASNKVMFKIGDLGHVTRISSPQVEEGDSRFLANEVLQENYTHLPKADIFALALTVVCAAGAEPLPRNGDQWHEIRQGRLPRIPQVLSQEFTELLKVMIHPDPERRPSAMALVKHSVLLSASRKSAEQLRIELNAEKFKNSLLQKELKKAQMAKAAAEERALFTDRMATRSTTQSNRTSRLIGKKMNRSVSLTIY
T4 sequence (Q96SW2 whole entry): as the sequence (Q96SW2 whole entry) above
T4 sequence (Q16531 whole entry partner): as the sequence (Q16531 whole entry partner) above

[5] = target: T5, GSPT1 (Homo sapiens, UniProt P15170+Q96SW2); test: Western-blot assay, substrate protein degradation in hPBMCs: GSPT1; conditions: for GSPT1 substrate protein remaining %: compounds at 50 nM and 500 nM, 24 hours; for substrate protein remaining % GSPT1: 24 hours of compound treatment, 50 nM and 500 nM
T5 construct: effects of the compounds of the present disclosure on the expression of target proteins in cells; endogenous in cells; host or cells: human PBMCs (hPBMCs)
T5 sequence (P15170 whole entry): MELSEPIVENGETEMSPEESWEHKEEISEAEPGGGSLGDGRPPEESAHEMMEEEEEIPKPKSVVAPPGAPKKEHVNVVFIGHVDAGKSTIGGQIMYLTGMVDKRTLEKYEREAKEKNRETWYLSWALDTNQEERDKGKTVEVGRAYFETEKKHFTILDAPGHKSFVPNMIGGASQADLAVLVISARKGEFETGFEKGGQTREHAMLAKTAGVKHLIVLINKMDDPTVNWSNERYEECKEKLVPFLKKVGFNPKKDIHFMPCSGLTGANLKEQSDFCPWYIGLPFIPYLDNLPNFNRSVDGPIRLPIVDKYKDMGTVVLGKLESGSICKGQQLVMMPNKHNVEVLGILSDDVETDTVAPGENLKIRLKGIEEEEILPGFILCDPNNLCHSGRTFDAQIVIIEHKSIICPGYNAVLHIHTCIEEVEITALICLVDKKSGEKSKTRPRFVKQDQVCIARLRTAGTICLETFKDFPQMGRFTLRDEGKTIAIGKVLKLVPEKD
T5 sequence (Q96SW2 whole entry): as the sequence (Q96SW2 whole entry) above
T5 sequence (Q16531 whole entry partner): as the sequence (Q16531 whole entry partner) above

[6] = target: T6, IKZF2 (Homo sapiens, UniProt Q96SW2+Q9UKS7); test: Western-blot assay, substrate protein degradation in hPBMCs: IKZF2; conditions: for IKZF2 substrate protein remaining %: compounds at 50 nM and 500 nM, 24 hours; for substrate protein remaining % IKZF2: 24 hours of compound treatment, 50 nM and 500 nM
T6 construct: effects of the compounds of the present disclosure on the expression of target proteins in cells; endogenous in cells; host or cells: human PBMCs (hPBMCs)

Structure (SMILES) | IKZF1 substrate protein remaining % [1] | IKZF3 substrate protein remaining % [2] | CK1α substrate protein remaining % [3] | WEE1 substrate protein remaining % [4] | GSPT1 substrate protein remaining % [5] | IKZF2 substrate protein remaining % [6] | substrate protein remaining % IKZF1 [1] | substrate protein remaining % IKZF3 [2] | substrate protein remaining % CK1α [3] | substrate protein remaining % WEE1 [4] | substrate protein remaining % GSPT1 [5] | substrate protein remaining % IKZF2 [6]
O=C1CCN(N2Cc3cc(CN4CCN(c5cccc(F)c5)CC4)ccc3C2=O)C(=O)N1 [GT-06701, 1-(5-((4-(3-fluorophenyl)piperazin-1-yl)methyl)-1-oxoisoindolin-2-yl)dihydropyrimidine-2,4(1H,3H)-dione] | B ("B" is defined as 80%< substrate protein remaining %≤ 100%) | B ("B" is defined as 80%< substrate protein remaining %≤ 100%) | A ("A" is defined as 0% ≤ substrate protein remaining % ≤ 80%) | B ("B" is defined as 80%< substrate protein remaining %≤ 100%) | A ("A" is defined as 0% ≤ substrate protein remaining % ≤ 80%) | B ("B" is defined as 80%< substrate protein remaining %≤ 100%) | – | – | – | – | – | –
CC1(C)CC(c2ccc(Cl)cc2)=C(CN2CCN(Cc3ccc4c(c3)C(=O)N(N3CCC(=O)NC3=O)C4=O)CC2)CO1 [GT-07304, 5-((4-((4-(4-chlorophenyl)-6,6-dimethyl-5,6-dihydro-2H-pyran-3-yl)methyl)piperazin-1-yl)methyl)-2-(2,4-dioxotetrahydropyrimidin-1(2H)-yl)isoindoline-1,3-dione] | – | – | – | – | – | – | B (80%< substrate protein remaining %≤ 100%) | B (80%< substrate protein remaining %≤ 100%) | A (0% ≤ substrate protein remaining % ≤ 80%) | B (80%< substrate protein remaining %≤ 100%) | A (0% ≤ substrate protein remaining % ≤ 80%) | B (80%< substrate protein remaining %≤ 100%)
O=C1CCN(N2Cc3cc(CN4CCC(c5cccc6cnccc56)CC4)ccc3C2=O)C(=O)N1 [GT-07644, 1-(5-((4-(isoquinolin-5-yl)piperidin-1-yl)methyl)-1-oxoisoindolin-2-yl)dihydropyrimidine-2,4(1H,3H)-dione] | – | – | – | – | – | – | B (80%< substrate protein remaining %≤ 100%) | B (80%< substrate protein remaining %≤ 100%) | B (80%< substrate protein remaining %≤ 100%) | B (80%< substrate protein remaining %≤ 100%) | A (0% ≤ substrate protein remaining % ≤ 80%) | B (80%< substrate protein remaining %≤ 100%)
O=C1CCN(N2C(=O)c3ccc(CN4CCN(Cc5ccc(C67CC8CC(CC(C8)C6)C7)cc5)CC4)cc3C2=O)C(=O)N1 [GT-07722, 5-((4-(4-((3r,5r,7r)-adamantan-1-yl)benzyl)piperazin-1-yl)methyl)-2-(2,4-dioxotetrahydropyrimidin-1(2H)-yl)isoindoline-1,3-dione] | – | – | – | – | – | – | B (80%< substrate protein remaining %≤ 100%) | A (0% ≤ substrate protein remaining % ≤ 80%) | A (0% ≤ substrate protein remaining % ≤ 80%) | A (0% ≤ substrate protein remaining % ≤ 80%) | A (0% ≤ substrate protein remaining % ≤ 80%) | A (0% ≤ substrate protein remaining % ≤ 80%)
O=C1CCN(N2C(=O)c3ccc(CN4CCN(c5nccc(I)c5F)CC4)cc3C2=O)C(=O)N1 [GT-06970, 2-(2,4-dioxotetrahydropyrimidin-1(2H)-yl)-5-((4-(3-fluoro-4-iodopyridin-2-yl)piperazin-1-yl)methyl)isoindoline-1,3-dione] | B ("B" is defined as 80%< substrate protein remaining %≤ 100%) | B ("B" is defined as 80%< substrate protein remaining %≤ 100%) | B ("B" is defined as 80%< substrate protein remaining %≤ 100%) | A ("A" is defined as 0% ≤ substrate protein remaining % ≤ 80%) | B ("B" is defined as 80%< substrate protein remaining %≤ 100%) | A ("A" is defined as 0% ≤ substrate protein remaining % ≤ 80%) | – | – | – | – | – | –
O=C1CCN(N2C(=O)c3ccc(CN4CCN(c5ncccn5)CC4)cc3C2=O)C(=O)N1 [GT-07285, 2-(2,4-dioxotetrahydropyrimidin-1(2H)-yl)-5-((4-(pyrimidin-2-yl)piperazin-1-yl)methyl)isoindoline-1,3-dione] | A ("A" is defined as 0% ≤ substrate protein remaining % ≤ 80%) | B ("B" is defined as 80%< substrate protein remaining %≤ 100%) | B ("B" is defined as 80%< substrate protein remaining %≤ 100%) | A ("A" is defined as 0% ≤ substrate protein remaining % ≤ 80%) | B ("B" is defined as 80%< substrate protein remaining %≤ 100%) | B ("B" is defined as 80%< substrate protein remaining %≤ 100%) | – | – | – | – | – | –
O=C1CCN(N2C(=O)c3ccc(CN4CCCN(C(c5ccccc5)c5ccccc5)CC4)cc3C2=O)C(=O)N1 [GT-07295, 5-((4-benzhydryl-1,4-diazepan-1-yl)methyl)-2-(2,4-dioxotetrahydropyrimidin-1(2H)-yl)isoindoline-1,3-dione] | B ("B" is defined as 80%< substrate protein remaining %≤ 100%) | B ("B" is defined as 80%< substrate protein remaining %≤ 100%) | B ("B" is defined as 80%< substrate protein remaining %≤ 100%) | B ("B" is defined as 80%< substrate protein remaining %≤ 100%) | A ("A" is defined as 0% ≤ substrate protein remaining % ≤ 80%) | B ("B" is defined as 80%< substrate protein remaining %≤ 100%) | – | – | – | – | – | –
Cc1cc(N2CCN(Cc3ccc4c(c3)C(=O)N(N3CCC(=O)NC3=O)C4=O)CC2)ccn1 [GT-07161, 2-(2,4-dioxotetrahydropyrimidin-1(2H)-yl)-5-((4-(2-methylpyridin-4-yl)piperazin-1-yl)methyl)isoindoline-1,3-dione] | B ("B" is defined as 80%< substrate protein remaining %≤ 100%) | B ("B" is defined as 80%< substrate protein remaining %≤ 100%) | B ("B" is defined as 80%< substrate protein remaining %≤ 100%) | B ("B" is defined as 80%< substrate protein remaining %≤ 100%) | A ("A" is defined as 0% ≤ substrate protein remaining % ≤ 80%) | A ("A" is defined as 0% ≤ substrate protein remaining % ≤ 80%) | – | – | – | – | – | –
O=C1CCN(N2Cc3cc(CN4CCN(c5noc6cc(F)ccc56)CC4)ccc3C2=O)C(=O)N1 [GT-07496, 1-(5-((4-(6-fluorobenzo[d]isoxazol-3-yl)piperazin-1-yl)methyl)-1-oxoisoindolin-2-yl)dihydropyrimidine-2,4(1H,3H)-dione] | – | – | – | – | – | – | B (80%< substrate protein remaining %≤ 100%) | B (80%< substrate protein remaining %≤ 100%) | A (0% ≤ substrate protein remaining % ≤ 80%) | B (80%< substrate protein remaining %≤ 100%) | A (0% ≤ substrate protein remaining % ≤ 80%) | B (80%< substrate protein remaining %≤ 100%)
O=C1CCN(N2Cc3cc(CN4CCN(c5nsc6cc(F)ccc56)CC4)ccc3C2=O)C(=O)N1 [GT-07500, 1-(5-((4-(6-fluorobenzo[d]isothiazol-3-yl)piperazin-1-yl)methyl)-1-oxoisoindolin-2-yl)dihydropyrimidine-2,4(1H,3H)-dione] | – | – | – | – | – | – | A (0% ≤ substrate protein remaining % ≤ 80%) | B (80%< substrate protein remaining %≤ 100%) | A (0% ≤ substrate protein remaining % ≤ 80%) | A (0% ≤ substrate protein remaining % ≤ 80%) | A (0% ≤ substrate protein remaining % ≤ 80%) | B (80%< substrate protein remaining %≤ 100%)
O=C1CCN(N2Cc3cc(CN4CCN(c5ccncc5Br)CC4)ccc3C2=O)C(=O)N1 [GT-05439, 1-(5-((4-(3-bromopyridin-4-yl)piperazin-1-yl)methyl)-1-oxoisoindolin-2-yl)dihydropyrimidine-2,4(1H,3H)-dione] | B ("B" is defined as 80%< substrate protein remaining %≤ 100%) | B ("B" is defined as 80%< substrate protein remaining %≤ 100%) | B ("B" is defined as 80%< substrate protein remaining %≤ 100%) | A ("A" is defined as 0% ≤ substrate protein remaining % ≤ 80%) | B ("B" is defined as 80%< substrate protein remaining %≤ 100%) | B ("B" is defined as 80%< substrate protein remaining %≤ 100%) | B (80%< substrate protein remaining %≤ 100%) | A (0% ≤ substrate protein remaining % ≤ 80%) | A (0% ≤ substrate protein remaining % ≤ 80%) | A (0% ≤ substrate protein remaining % ≤ 80%) | A (0% ≤ substrate protein remaining % ≤ 80%) | B (80%< substrate protein remaining %≤ 100%)
